The text below walks through data of ChEMBL document CHEMBL1135099, “Synthesis and antinephritic activities of quinoline-3-carboxamides and related compounds” (2002).

Molecules are shown by their SMILES. Calls of active or inactive are those of the source. The rule behind the calls is not given here.

The subject of assay [1] is Mus musculus. The assay can be described thus: Percent inhibition of proteinuria by compound dose of 100 mg/kg given perorally to murine in chronic graft-versus-host-disease test. The class given is functional. To be noted: route oral.
Assay [2] deals with Mus musculus. The assay is described as follows: Percent inhibition of proteinuria in mice, perorally dose of 32 mg/kg. Format: functional. To be noted: route oral.
Assay [3] concerns Mus musculus. The assay can be described thus: Percent inhibition of anti-DNA antibody was evaluated by ELISA technique as a measure of auto-immune disease after injection of compound dose of 1 mg/kg in murine. The class given is functional. Background: An ELISA detects its analyte on a solid surface through an enzyme-linked reagent.
Assay [4] concerns Mus musculus. The assay can be described thus: Percent inhibition of proteinuria by compound dose of 1 mg/kg given perorally to murine in chronic graft-versus-host-disease test. Format: functional. To be noted: route oral.
The subject of assay [5] is Mus musculus. The assay can be described thus: Percent inhibition of anti-DNA antibody was evaluated by ELISA technique as a measure of auto-immune disease after injection of compound dose of 10 mg/kg in murine. The class given is functional.
Assay [6] relates to Mus musculus. The assay is described as follows: Percent inhibition of anti-DNA antibody was evaluated by ELISA technique as a measure of auto-immune disease after injection of compound dose of 0.1 mg/kg in murine. The class given is functional.
Assay [7] has as its system Mus musculus. The assay can be described thus: Percent inhibition of proteinuria by compound dose of 0.1 mg/kg given perorally to murine in chronic graft-versus-host-disease test. The class given is functional. To be noted: route oral.
The subject of assay [8] is Mus musculus. The assay is described as follows: Percent inhibition of proteinuria by compound dose of 10 mg/kg given perorally to murine in chronic graft-versus-host-disease test. Format: functional. To be noted: route oral.
For assay [9], the system named is Mus musculus. The assay can be described thus: Percent inhibition of anti-DNA antibody was evaluated by ELISA technique as a measure of auto-immune disease after injection of compound dose of 100 mg/kg in murine. The class given is functional.
Assay [10] concerns Mus musculus. The assay can be described thus: Percent inhibition of anti-DNA antibody was evaluated by ELISA technique as a measure of auto-immune disease after injection of compound dose of 3.2 mg/kg in MRL/1 mice. The class given is functional.
In assay [11] the test system is Mus musculus. The assay can be described thus: Percent inhibition of anti-DNA antibody was evaluated by ELISA technique as a measure of auto-immune disease after injection of compound dose of 100 mg/kg in MRL/1 mice. The class given is functional.
Assay [12] deals with Mus musculus. The assay can be described thus: Percent inhibition of anti-DNA antibody was evaluated by ELISA technique as a measure of auto-immune disease after injection of compound dose of 32 mg/kg in murine. The class given is functional.
The test system of assay [13] is Mus musculus. The assay is described as follows: Percent inhibition of anti-DNA antibody was evaluated by ELISA technique as a measure of auto-immune disease after injection of compound dose of 32 mg/kg in MRL/1 mice. The class given is functional.
For assay [14], the system named is Mus musculus. The assay can be described thus: Percent inhibition of proteinuria by compound dose of 10 mg/kg given perorally to MRL/1 mice. The class given is functional. To be noted: route oral.
In assay [15] the test system is Mus musculus. The assay can be described thus: Percent inhibition of proteinuria by compound dose of 1 mg/kg given perorally to MRL/1 mice; Inactive. Format: functional, organism-based. More on the design: dose 1 mg/kg.
Assay [16] has as its system Mus musculus. The assay is described as follows: Percent inhibition of proteinuria by compound dose of 100 mg/kg given perorally to MRL/1 mice. To be noted: route oral. Format: functional.
Assay [17] deals with Mus musculus. The assay is described as follows: Percent inhibition of proteinuria by compound dose of 3.2 mg/kg given perorally to MRL/1 mice; Inactive. More on the design: dose 3.2 mg/kg. The class given is functional, organism-based.
The subject of assay [18] is Mus musculus. The assay is described as follows: Percent inhibition of anti-DNA antibody was evaluated by ELISA technique as a measure of auto-immune disease after injection of compound dose of 10 mg/kg in MRL/1 mice. Format: functional.
The subject of assay [19] is Mus musculus. The assay can be described thus: Percent inhibition of anti-DNA antibody was evaluated by ELISA technique as a measure of auto-immune disease after injection of compound dose of 1 mg/kg in MRL/1 mice. The class given is functional.
The test system of assay [20] is Mus musculus. The assay can be described thus: Percent inhibition of proteinuria by compound dose of 32 mg/kg given perorally to MRL/1 mice. Format: functional. To be noted: route oral.
The test system of assay [21] is Mus musculus. The assay can be described thus: Percent inhibition of proteinuria by compound dose of 0.32 mg/kg given perorally to MRL/1 mice. To be noted: route oral. The class given is functional.
Assay [22] concerns Mus musculus. The assay can be described thus: Percent inhibition of anti-DNA antibody was evaluated by ELISA technique as a measure of auto-immune disease after injection of compound dose of 0.1 mg/kg in MRL/1 mice. Format: functional.
The subject of assay [23] is Mus musculus. The assay is described as follows: Percent inhibition of proteinuria by compound dose of 0.1 mg/kg given perorally to MRL/1 mice. To be noted: route oral. Format: functional.
Assay [24] relates to Mus musculus. The assay is described as follows: Percent inhibition of proteinuria by compound dose of 3.2 mg/kg given perorally to MRL/1 mice. Format: functional. To be noted: route oral.
In assay [25] the test system is Mus musculus. The assay is described as follows: Percent inhibition of proteinuria by compound dose of 1 mg/kg given perorally to MRL/1 mice. Format: functional. To be noted: route oral.
In assay [26] the test system is Mus musculus. The assay can be described thus: Percent inhibition of anti-DNA antibody was evaluated by ELISA technique as a measure of auto-immune disease after injection of compound dose of 0.32 mg/kg in MRL/1 mice. The class given is functional.

For orientation: inhibition in vivo means the relative decrease from the control value, in per cent. As for `CSc1ccc2c(c1)c(O)c(S(=O)(=O)Cc1ccccc1)c(=O)n2C`, in the assay on Mus musculus [1], the inhibition in vivo at 100 mg/kg is -49%.
Turning to `CN(C(=O)c1c(O)c2cc(Oc3ccccc3)ccc2n(C)c1=O)c1ccccc1`, in the assay on Mus musculus [2], the inhibition in vivo at 32 mg/kg came to 26%.
Same read-out and setting: the same measure for `CSc1ccc2c(c1)c(O)c(C(=O)Nc1ccccc1)c(=O)n2C`: 24%.
Regarding `CSc1ccc2c(c1)c(O)c(S(=O)(=O)N(C)c1ccccc1)c(=O)n2C`, the inhibition in vivo at 32 mg/kg in the assay with Mus musculus [2] was 53%.
Take `CSc1ccc2c(c1)c(Cl)c(C(=O)N(C)c1ccccc1)c(=O)n2C`: in the assay with Mus musculus [2], the inhibition in vivo at 32 mg/kg is -1%.
Still for that read-out and setting: the same measure for `CSc1ccc2c(c1)c(O)c(C(=O)N(C)c1ccc(F)cc1)c(=O)n2C`: 100%.
Consider `CSc1ccc2c(c1)c(O)c(C(=O)n1ccc3ccccc31)c(=O)n2C`, for which the inhibition in vivo at 100 mg/kg in the assay with Mus musculus [1] was determined as 48%.
Take `CCSc1ccc2c(c1)c(O)c(C(=O)N(C)c1ccccc1)c(=O)n2C`: the inhibition in vivo at 32 mg/kg with Mus musculus [2] is 100%.
Still for that read-out and setting: the same measure for `CSc1ccc2c(c1)c(O)c(C(=O)N(C)c1ccccn1)c(=O)n2C`: 65%; for `CSc1ccc2c(c1)c(N)c(C(=O)N(C)c1ccccc1)c(=O)n2C`: 22%.
For `CCn1c(=O)c(C(=O)N(C)c2ccccc2)c(O)c2cc(SC)ccc21`, in the assay on Mus musculus [2], the inhibition in vivo at 32 mg/kg is 83%.
Same read-out and setting: the same measure for `CSc1ccc2c(c1)c(O)c(C(=O)N(C)c1ccc(C)cc1)c(=O)n2C`: 100%; for `CCN(C(=O)c1c(O)c2cc(SC)ccc2n(C)c1=O)c1ccccc1`: 89%; for `COCn1c(=O)c(C(=O)N(C)c2ccccc2)c(O)c2cc(SC)ccc21`: 78%.
In the case of `CSc1ccc2c(c1)c(O)c(C(=O)C1(c3ccccc3)CC1)c(=O)n2C`, in the assay with Mus musculus [1], the inhibition in vivo at 100 mg/kg was 29%.
Same read-out and setting: for `CSc1ccc2c(c1)c(O)c(C(=O)c1ccccc1)c(=O)n2C` the value was 42%.
For `C[C@]12C=CC(=O)C=C1CCC1[C@@H]2[C@@H](O)C[C@@]2(C)[C@H]1CC[C@]2(O)C(=O)CO` (single isomer, unassigned) [PREDNISOLONE], the inhibition in vivo at 1 mg/kg in the assay on Mus musculus [3] was determined as 39%; in the assay with Mus musculus [4] it was 75%. Moreover, the inhibition in vivo at 10 mg/kg with Mus musculus [5] came out at 52%; with Mus musculus [8] it was 100%. Further, the inhibition in vivo at 0.1 mg/kg in the assay with Mus musculus [6] worked out at 39%; with Mus musculus [7] it was 53%.
For the compound `CN(C(=O)c1c(O)c2ccccc2n(C)c1=O)c1ccccc1` [ROQUINIMEX], the inhibition in vivo at 100 mg/kg in the assay on Mus musculus [9] worked out at 37%; with Mus musculus [11], 76%; in the assay on Mus musculus [1] it was 98%; in the assay with Mus musculus [16] it was 100%. Besides, in the assay on Mus musculus [10], the inhibition in vivo at 3.2 mg/kg came out at 35%. Also, the inhibition in vivo at 32 mg/kg in the assay with Mus musculus [2] was determined as 86%; in the assay with Mus musculus [12] it was 36%; in the assay on Mus musculus [13], 52%; in the assay on Mus musculus [20] it was 100%. The inhibition in vivo at 10 mg/kg in the assay on Mus musculus [14] was 60%; in the assay with Mus musculus [5], -19%; in the assay with Mus musculus [18], 51%; in the assay on Mus musculus [8], 9%. The inhibition entry in the assay with Mus musculus [15] and in the assay with Mus musculus [17] was “inactive” each time. Besides, the inhibition in vivo at 1 mg/kg with Mus musculus [19] came out at 24%.
`CSc1ccc2c(c1)c(O)c(C(=O)N(C)c1cccc(C(F)(F)F)c1)c(=O)n2C`: the inhibition in vivo at 32 mg/kg in the assay on Mus musculus [2] was 99%.
Still for that read-out and setting: the same measure for `CSc1ccc2nc(O)c(C(=O)N(C)c3ccccc3)c(O)c2c1`: 88%.
The same measure, in the same setting: for `COc1ccc(N(C)C(=O)c2c(O)c3cc(SC)ccc3n(C)c2=O)cc1` the value was 100%; for `CN(C(=O)c1c(O)c2cc(S(C)(=O)=O)ccc2n(C)c1=O)c1ccccc1`, 0%.
With `CSc1ccc2c(c1)c(O)c(C(=O)N(C)c1ccccc1)c(=O)n2C`, the results for the inhibition in vivo at 0.32 mg/kg in the assay on Mus musculus [21] and with Mus musculus [26] were 100% and 69%, respectively. Moreover, the results for the inhibition in vivo at 100 mg/kg with Mus musculus [9] and in the assay with Mus musculus [1] were 94% and 100%, respectively. The inhibition in vivo at 3.2 mg/kg in the assay on Mus musculus [10] stood at 88%; in the assay with Mus musculus [24], 100%. For the same compound, the inhibition in vivo at 0.1 mg/kg in the assay with Mus musculus [22] is 49%; in the assay with Mus musculus [23], 100%; with Mus musculus [6], 41%; with Mus musculus [7], 66%. Further, the inhibition in vivo at 1 mg/kg in the assay with Mus musculus [3] stood at 50%; with Mus musculus [4], 82%; with Mus musculus [25], 100%; with Mus musculus [19] it was 76%. The inhibition in vivo at 32 mg/kg in the assay on Mus musculus [2] was 100%. For the same compound, the inhibition in vivo at 10 mg/kg is 100% in the assay with Mus musculus [14], 88% in the assay with Mus musculus [5], 93% in the assay with Mus musculus [18] and 100% in the assay with Mus musculus [8].
For the compound `CSc1ccc2c(c1)c(O)c(C(=O)N(C)c1ccccc1)c(=O)n2Cc1ccccc1`, in the assay with Mus musculus [2], the inhibition in vivo at 32 mg/kg was -66%.
Still for that read-out and setting: for `CSc1ccc2c(c1)c(S)c(C(=O)N(C)c1ccccc1)c(=O)n2C` the value was 19%; for `CSc1ccc2c(c1)c(O)c(C(=O)N(C)C1CCCCC1)c(=O)n2C`, 43%; for `COc1c(C(=O)N(C)c2ccccc2)c(=O)n(C)c2ccc(SC)cc12`, 94%.
On the same count and under the same terms, the same measure for `CNc1c(C(=O)N(C)c2ccccc2)c(=O)n(C)c2ccc(SC)cc12`: 83%.
Still for that read-out and setting: for `CN(C(=O)c1c(O)c2cc([S+](C)[O-])ccc2n(C)c1=O)c1ccccc1` (stereo not drawn) the value was 100%; for `CN(C(=O)c1c(O)c2cc(Sc3ccccc3)ccc2n(C)c1=O)c1ccccc1`, 100%.
